Measured values reported in paper PMC2363406 (British Journal of Cancer, 2000).
pIC50, pKi: −log10 of the molar value. Where “and” joins values, the source holds several entries; their conditions need not be identical. Equal entries are not always repeated. Entries after “also recorded” stand apart in the source; their conditions may differ. Structures can show the parent of a compound that is named as a salt. Where two headings read alike, the source gives them in different places.

Tests used:
[1] = system: cytochrome P450; conditions: cited from earlier work; for metabolic interactions with paclitaxel: paclitaxel pre-medication drugs, 1995, Schlichenmyer et al; for effect on the metabolism of paclitaxel: 1997
[2] = target: T1, CYP2C8 (Homo sapiens, UniProt P10632); test: Inhibition of paclitaxel metabolism to 6-hydroxypaclitaxel in pooled human liver microsomes; assay type: in vitro ADME
T1 construct: Pooled human liver microsomes (1 mg protein per ml) were incubated with paclitaxel; tissue Keystone Skin Bank Exton, PA, USA; host or cells: pooled human liver microsomes from ten individual livers
T1 sequence (P10632 1-490): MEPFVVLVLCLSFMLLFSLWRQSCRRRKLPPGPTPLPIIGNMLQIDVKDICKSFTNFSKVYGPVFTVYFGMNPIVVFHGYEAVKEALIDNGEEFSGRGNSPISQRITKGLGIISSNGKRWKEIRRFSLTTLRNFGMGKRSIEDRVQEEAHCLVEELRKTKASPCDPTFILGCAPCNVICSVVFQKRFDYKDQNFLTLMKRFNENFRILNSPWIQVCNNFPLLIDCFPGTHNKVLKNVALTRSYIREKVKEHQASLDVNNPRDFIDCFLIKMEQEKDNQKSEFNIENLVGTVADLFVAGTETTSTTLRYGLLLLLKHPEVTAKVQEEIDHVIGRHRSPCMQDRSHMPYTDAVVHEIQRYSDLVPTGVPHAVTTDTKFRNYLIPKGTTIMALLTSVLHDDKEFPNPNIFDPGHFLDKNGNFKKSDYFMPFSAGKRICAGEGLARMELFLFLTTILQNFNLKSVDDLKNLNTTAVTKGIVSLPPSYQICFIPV

[3] = system: HNX22B; test: In vitro growth inhibition (SRB assay), single agents and nolatrexed/paclitaxel combination (Chou and Talalay combination index); assay type: cell-based
[4] = Clinical plasma pharmacokinetics of nolatrexed (HPLC, non-compartmental analysis); assay type: in vivo, human; conditions: for half-life: human, plasma, iv, Nolatrexed Half-life; for half-life / Nolatrexed Half-life / Nolatrexed Clearance: nolatrexed 500 mg m-2 day-1 120-h i.v. infusion
[5] = system: HNX14C; test: In vitro growth inhibition (SRB assay), single agents and nolatrexed/paclitaxel combination (Chou and Talalay combination index); assay type: cell-based
[6] = Clinical plasma pharmacokinetics of paclitaxel and its metabolites (HPLC, non-compartmental analysis); conditions: for AUC / half-life: human
[7] = single agent, 135 mg m-2, cited from earlier work
[8] = in vitro studies, ref Jamis-Dow et al
[9] = schedule 1, patients 3, 6, 9 in order
[10] = schedule 2, patients 5, 7, 10 in order
[11] = schedule 3, patients 2, 4, 8 in order
[12] = 3-h paclitaxel exposure, single agent, mean (s.d.) n = 3
[13] = schedule 1, paclitaxel 80 mg m-2 3-h i.v., course 1, patients 3, 6, 9 in order
[14] = schedule 2, paclitaxel 80 mg m-2
[15] = schedule 2, paclitaxel 80 mg m-2 3-h i.v., course 1, patients 5, 7, 10 in order
[16] = human liver preparations and patients, ref Harris et al, 1994, Kuhn et al

CN(C)CCC(c1ccc(Cl)cc1)c1ccccn1 (stereo not drawn) [chlorpheniramine]
metabolic interactions with paclitaxel ([1]; ref Jamis-Dow et al): no metabolic interactions

CN/C(=N/CCSCc1nc[nH]c1C)NC#N [cimetidine]
metabolic interactions with paclitaxel ([1]; ref Jamis-Dow et al): no metabolic interactions

C[C@@H]1C[C@H]2[C@@H]3CCC4=CC(=O)C=C[C@]4(C)[C@@]3(F)[C@@H](O)C[C@]2(C)[C@@]1(O)C(=O)CO [dexamethasone]
metabolic interactions with paclitaxel ([1]; ref Jamis-Dow et al): no metabolic interactions

OC(Cn1cncn1)(Cn1cncn1)c1ccc(F)cc1F [fluconazole]
effect on the metabolism of paclitaxel [1, 8]: inhibit the metabolism of paclitaxel

CC(=O)N1CCN(c2ccc(OCC3COC(Cn4ccnc4)(c4ccc(Cl)cc4Cl)O3)cc2)CC1 (stereo not drawn) [ketoconazole]
effect on the metabolism of paclitaxel [1, 8]: inhibit the metabolism of paclitaxel

Cc1ccc2nc(N)[nH]c(=O)c2c1Sc1ccncc1 [nolatrexed, 3,4-dihydro-2-amino-6-methyl-4-oxo-5-(4-pyridylthio)-quinazolone dihydrochloride]
inhibition of paclitaxel metabolism ([2]; human liver microsomes, statement in words): being an inhibitor of the major routes of metabolism of paclitaxel
pKi ([2]; read-out: Ki, inhibition of metabolism of paclitaxel to its 6-hydroxy-metabolite): 6.19
pIC50 ([3]; 120 h): 6.18
half-life [4, 9]: 1.1 h
half-life [4, 10]: 1.97 h
half-life [4, 11]: 1.62 h
Nolatrexed Half-life [4, 9]: 1.88 h and 2.13 h
Nolatrexed Clearance [4, 10]: 73 ml min-1 m-2 and 108 ml min-1 m-2 and 91 ml min-1 m-2
Nolatrexed Half-life [4, 10]: 1.58 h and 2.57 h
Nolatrexed Clearance [4, 11]: 99 ml min-1 m-2 and 62 ml min-1 m-2 and 79 ml min-1 m-2
Nolatrexed Half-life [4, 11]: 2.2 h and 1.9 h
effect of schedule on the pharmacokinetics of nolatrexed ([4]; three schedules with paclitaxel): no effect of schedule; also recorded: unaffected by schedule
pIC50 ([5]; 120 h): 5.95

CC(=O)O[C@H]1C(=O)[C@@]2(C)[C@H]([C@H](OC(=O)c3ccccc3)[C@]3(O)C[C@H](OC(=O)[C@H](O)[C@@H](NC(=O)c4ccccc4)c4ccccc4)C(C)=C1C3(C)C)[C@]1(OC(C)=O)CO[C@@H]1C[C@@H]2O [paclitaxel]
pIC50 [3, 12]: 7.42
AUC ([6]; plasma, intravenous, 80 mg, AUCs of paclitaxel, schedules 1 and 3 (except patient 8), paclitaxel 80 mg m-2): 3 to 4.85 µM·h
AUC ([6]; plasma, intravenous, 135 mg m-2, Paclitaxel AUC, patient 8, single-agent paclitaxel 135 mg m-2 as 3-h infusion, no nolatrexed): 20.6 µM·h
half-life ([6]; plasma, intravenous, 135 mg m-2, Paclitaxel Half-life, patient 8, single-agent paclitaxel 135 mg m-2 as 3-h infusion, no nolatrexed): 6 h
AUC ([6]; plasma, iv, 80 mg, Paclitaxel AUC, schedule 1, paclitaxel 80 mg m-2 3-h i.v., course 1, patients 3, 6, 9 in order): 3.78 µM·h
AUC ([6]; plasma, iv, 80 mg, Paclitaxel AUC, schedule 2, paclitaxel 80 mg m-2 3-h i.v., course 1, patients 5, 7, 10 in order): 9.42 µM·h
half-life ([6]; plasma, iv, 80 mg, Paclitaxel Half-life, schedule 1, paclitaxel 80 mg m-2 3-h i.v., course 1, patients 3, 6, 9 in order): 7.02 h
half-life ([6]; plasma, iv, 80 mg, Paclitaxel Half-life, schedule 2, paclitaxel 80 mg m-2 3-h i.v., course 1, patients 5, 7, 10 in order): 6.88 h
half-life ([6]; plasma, iv, 80 mg, Paclitaxel Half-life, schedule 3, paclitaxel 80 mg m-2 3-h i.v., course 1, patients 2, 4, 8 in order): 6.08 h
Paclitaxel Clearance ([6]; patient 8, single-agent paclitaxel 135 mg m-2 as 3-h infusion, no nolatrexed): 127 ml min-1 m-2
clearance of paclitaxel ([6]; patients on schedules 1 and 3 (with the exception of patient 8), paclitaxel 80 mg m-2): 322–520 ml min-1 m-2 and 322-520 ml min-1 m-2
Paclitaxel Clearance [6, 13]: 376 ml min-1 m-2 and 322 ml min-1 m-2 and 411 ml min-1 m-2
Paclitaxel Half-life [6, 13]: 7.37 h and 8.45 h
time above plasma paclitaxel concentration of 0.05 M ([6]; schedule 2): 16 to 27 h
time above plasma paclitaxel concentration of 0.1 M ([6]; schedule 2): 10 to 18 h
Paclitaxel Peak conc. ([6]; schedule 2 (nolatrexed 0-120 h, paclitaxel 48-51 h), paclitaxel 80 mg m-2 3-h i.v., plasma, course 1, patients 5, 7, 10 in order): 1.66-1.93 M
areas under the curve of paclitaxel [6, 14]: 392 to 565 µM/min
peak plasma concentrations of paclitaxel [6, 14]: 1.66 to 1.93 µM
Paclitaxel Clearance [6, 15]: 165–238 ml min-1 m-2 and 165 ml min-1 m-2 and 238 ml min-1 m-2 and 171 ml min-1 m-2 and 165-238 ml min-1 m-2
Paclitaxel Half-life [6, 15]: 6.35 h and 6.93 h
Paclitaxel AUC ([6]; schedule 2, paclitaxel 80 mg m-2 3-h i.v., plasma, course 1, patients 5, 7, 10 in order): 392 to 565 M/min
Paclitaxel Half-life ([6]; schedule 3, paclitaxel 80 mg m-2 3-h i.v., course 1, patients 2, 4, 8 in order): 8.42 h and 6.35 h
time above plasma paclitaxel concentration of 0.05 M ([6]; schedules 1 and 3): 8 to 18 h
time above plasma paclitaxel concentration of 0.1 M ([6]; schedules 1 and 3): 5 to 8 h
peak plasma concentrations of paclitaxel ([6]; schedules 1 and 3 (except patient 8), paclitaxel 80 mg m-2): 860000 to 1.32e+06 µM
Paclitaxel Clearance ([7]; ref Gianni, 1995): 247 ml min-1 m-2
Paclitaxel Clearance ([7]; ref Keung, 1993): 295 ml min-1 m-2
pIC50 [5, 12]: 7.51

CCC1(c2ccccc2)C(=O)NC(=O)NC1=O [phenobarbitone]
effect on the metabolism of paclitaxel [1, 16]: increase the metabolism of paclitaxel

O=C1NC(=O)C(c2ccccc2)(c2ccccc2)N1 [phenytoin]
effect on the metabolism of paclitaxel [1, 16]: increase the metabolism of paclitaxel
